System: colon (colonic purgation)
Assay: Stool output of normal volunteers after one amount of laxative, bowel movements collected 24 hours
Assay type: in vivo, human
Details: 20 mg, 24 hours collection
Experimental: The sulfate salt solutions such as those described herein were investigated for their efficacy as colon debulking agents because bisacodyl has been associated with reports of abdominal cramping. Four different solutions were prepared with varying amounts of sodium, magnesium, and potassium sulfate salts and each containing a total sulfate amount of 125 mM.
These included bisacodyl (20 mg), a PEG and balanced electrolyte isotonic preparation (NuLYTELY®, (2 L or 4 L) or HalfLytely®+Bisacodyl Bowel Prep Kit, (2 L PEG and electrolytes and 10 mg bisacodyl). Bowel movements and urine were collected for 24 hours. The stool output of the subjects were compared and evaluated for movement of electrolytes between the solution and the subject.
The results measured were mean stool volume output and are shown below in Table 2 using non-sulfate laxatives and in Table 3 using sulfate laxatives.

Structure (SMILES): CC(=O)Oc1ccc(C(c2ccc(OC(C)=O)cc2)c2ccccn2)cc1 [Bisacodyl, bisacodyl]
- % Solids (stool): 50.4%
- Output (mean stool volume output): 757 g

Reference: patent US20140087007A1, “BOWEL CLEANSING PREPARATIONS” (Braintree Laboratories, Inc., priority 2012, published 2014)
